Results from patent US8461305B2, “L-fucose α1→6 specific lectin” (J-Oil Mills, Inc., priority 2008, dated 2013).

Test: frontal affinity chromatography (FAC), association constant to PA sugar chains without L-fucose
Assay type: binding
Method: The following section will describe a method of calculating an association constant by frontal affinity chromatography (FAC). This method is based on the following principle. […] Then, the elution front end (front) is observed immediately. When there is an affinity with lectin, the elution of the sugar chain is delayed.
The preparation of a lectin column used in the apparatus is performed in the method as described below. 1. Purified lectin is dissolved in 0.1 to 0.2M of NaHCO3 buffer solution (pH 8.3 to 8.5). 2. The lectin is immobilized, via a lectin primary amino group, a carrier such as NHS activated sepharose. 3. Then, the lectin is blocked by Tris buffer solution including primary amine or ethanolamine for example. 4. Lectin-sepharose is suspended in 10 mM Tris buffer, including 0.8% of NaCl (pH 7.4, TBS). Then, lectin immobilized resin is filled in a miniature column (φ2 mm×10 mm, 31.4 μl). 5. The miniature column in which the lectin immobilized resin is filled is protected by a holder and the lectin column is connected to an FAC automatic analysis apparatus (FAC-1, SHIMADZU CORPORATION).
Then, the elution of the PA sugar chain from the column is detected by a fluorescence detector (excitation wavelength/fluorescence wavelength: 310 nm/380 nm).
Based on the detection data, by using the elution front end (Vo) of the sugar chain (PA rhamnose) not interacting with lectin as a reference, the delay (V−Vo) of the elution front end (V) of a sugar chain interacting with lectin is calculated as an interaction strength. Then, based on the following FAC criteria expressions, the association constant (Ka) between the sugar chain and lectin is calculated based on V−Vo and Bt. If the interaction strength (V−Vo value) and the association constant are higher, a higher affinity is caused between lectin and an L-fucose α1→6 sugar chain.
[In the formula, A means substance used for the elution, Ao means the initial concentration of the substance A, B means a immobilized ligand, V means the elution volume, Vo means the elution front end volume of the substance not interacting with the immobilized ligand B at all, Bt means an effective ligand amount, Kd means a dissociation constant (an inverse of the association constant)].
Pyridylaminated (PA) sugar chains shown in FIG. 1 and FIG. 2 were used to frontal affinity chromatography (FAC) analysis. PA sugars were purchased from TAKARA BIO INC., SEIKAGAKU BIOBUSINESS CORPORATION, and Masuda Chemical Industries co., LTD. PA sugar were also obtained by pyridylaminating, by GlycoTAG®(TAKARA BIO INC.), an unlabeled sugar chain or a sugar chain obtained by subjecting a sugar chain to enzyme digestion for example.
Lectin was dissolved in 0.2 M NaHCO3 buffer solution (pH 8.3) including 0.5 M NaCl and coupled to the NHS-activated sepharose (GE Healthcare Bioscience) by following the manufacturer's instructions. Then, lectin immobilized sepharose was suspended in 10 mM Tris buffer (pH 7.4, TBS) including […] and the resultant matter was filled in a miniature column (φ2 mm×10 mm, 31.4 μl).
Frontal affinity chromatography was performed using FAC automatic analysis apparatus (FAC-1, SHIMADZU CORPORATION). In particular, the above-prepared lectin column was inserted to a stainless steel holder and the holder was connected to FAC-1 apparatus. The flow rate and the column temperature were maintained at 0.125 ml/min and 25 degrees C., respectively. After the miniature column was equilibrated by the TBS, an excessive volume (0.5 ml to 4 ml) of a PA sugar chain (3.75 nM or 7.5 nM) was continuously inputted to the column using an automatic sampling apparatus.
The fluorescent strength of the eluate of the PA sugar (excitation wavelength of 310 nm and fluorescence wavelength of 380 nm) was monitored to measure the interaction strength [a difference of the front end eluate to the standard oligosaccharide (PA rhamnose): V−V0]. […]

binding to sugar chain not having L-fucose (FAC): not detected at all
Substance: Naematoloma sublateritium lectin [NSL]
association constant Ka (Sugar chain No. 001, sugar chain not having L-fucose): <1000 M⁻¹ | association constant Ka (Sugar chain No. 002, sugar chain not having L-fucose): <1000 M⁻¹ | association constant Ka (Sugar chain No. 003, sugar chain not having L-fucose): <1000 M⁻¹ | association constant Ka (Sugar chain No. 004, sugar chain not having L-fucose): <1000 M⁻¹ | association constant Ka (Sugar chain No. 005, sugar chain not having L-fucose): <1000 M⁻¹ | association constant Ka (Sugar chain No. 006, sugar chain not having L-fucose): <1000 M⁻¹ | association constant Ka (Sugar chain No. 007, sugar chain not having L-fucose): <1000 M⁻¹ | association constant Ka (Sugar chain No. 008, sugar chain not having L-fucose): <1000 M⁻¹ | association constant Ka (Sugar chain No. 009, sugar chain not having L-fucose): <1000 M⁻¹ | association constant Ka (Sugar chain No. 010, sugar chain not having L-fucose): <1000 M⁻¹ | association constant Ka (Sugar chain No. 011, sugar chain not having L-fucose): <1000 M⁻¹ | association constant Ka (Sugar chain No. 012, sugar chain not having L-fucose): <1000 M⁻¹ | association constant Ka (Sugar chain No. 013, sugar chain not having L-fucose): <1000 M⁻¹ | association constant Ka (Sugar chain No. 014, sugar chain not having L-fucose): <1000 M⁻¹ | association constant Ka (Sugar chain No. 101, sugar chain not having L-fucose): <1000 M⁻¹ | association constant Ka (Sugar chain No. 103, sugar chain not having L-fucose): <1000 M⁻¹ | association constant Ka (Sugar chain No. 104, sugar chain not having L-fucose): <1000 M⁻¹ | association constant Ka (Sugar chain No. 105, sugar chain not having L-fucose): <1000 M⁻¹ | association constant Ka (Sugar chain No. 107, sugar chain not having L-fucose): <1000 M⁻¹ | association constant Ka (Sugar chain No. 108, sugar chain not having L-fucose): <1000 M⁻¹ | association constant Ka (Sugar chain No. 301, sugar chain not having L-fucose): <1000 M⁻¹ | association constant Ka (Sugar chain No. 304, sugar chain not having L-fucose): <1000 M⁻¹ | association constant Ka (Sugar chain No. 305, sugar chain not having L-fucose): <1000 M⁻¹ | association constant Ka (Sugar chain No. 307, sugar chain not having L-fucose): <1000 M⁻¹ | association constant Ka (Sugar chain No. 308, sugar chain not having L-fucose): <1000 M⁻¹ | association constant Ka (Sugar chain No. 313, sugar chain not having L-fucose): <1000 M⁻¹ | association constant Ka (Sugar chain No. 314, sugar chain not having L-fucose): <1000 M⁻¹ | association constant Ka (Sugar chain No. 323, sugar chain not having L-fucose): <1000 M⁻¹ | association constant Ka (Sugar chain No. 501, sugar chain not having L-fucose): <1000 M⁻¹ | association constant Ka (Sugar chain No. 502, sugar chain not having L-fucose): <1000 M⁻¹ | association constant Ka (Sugar chain No. 503, sugar chain not having L-fucose): <1000 M⁻¹ | association constant Ka (Sugar chain No. 504, sugar chain not having L-fucose): <1000 M⁻¹ | association constant Ka (Sugar chain No. 701, sugar chain not having L-fucose): <1000 M⁻¹ | association constant Ka (Sugar chain No. 702, sugar chain not having L-fucose): <1000 M⁻¹ | association constant Ka (Sugar chain No. 703, sugar chain not having L-fucose): <1000 M⁻¹ | association constant Ka (Sugar chain No. 704, sugar chain not having L-fucose): <1000 M⁻¹ | association constant Ka (Sugar chain No. 705, sugar chain not having L-fucose): <1000 M⁻¹ | association constant Ka (Sugar chain No. 706, sugar chain not having L-fucose): <1000 M⁻¹ | association constant Ka (Sugar chain No. 707, sugar chain not having L-fucose): <1000 M⁻¹ | association constant Ka (Sugar chain No. 708, sugar chain not having L-fucose): <1000 M⁻¹ | association constant Ka (Sugar chain No. 709, sugar chain not having L-fucose): <1000 M⁻¹ | association constant Ka (Sugar chain No. 710, sugar chain not having L-fucose): <1000 M⁻¹ | association constant Ka (Sugar chain No. 711, sugar chain not having L-fucose): <1000 M⁻¹ | association constant Ka (Sugar chain No. 712, sugar chain not having L-fucose): <1000 M⁻¹ | association constant Ka (Sugar chain No. 713, sugar chain not having L-fucose): <1000 M⁻¹ | association constant Ka (Sugar chain No. 715, sugar chain not having L-fucose): <1000 M⁻¹ | association constant Ka (Sugar chain No. 716, sugar chain not having L-fucose): <1000 M⁻¹ | association constant Ka (Sugar chain No. 717, sugar chain not having L-fucose): <1000 M⁻¹ | association constant Ka (Sugar chain No. 724, sugar chain not having L-fucose): <1000 M⁻¹ | association constant Ka (Sugar chain No. 725, sugar chain not having L-fucose): <1000 M⁻¹ | association constant Ka (Sugar chain No. 728, sugar chain not having L-fucose): <1000 M⁻¹ | association constant Ka (Sugar chain No. 732, sugar chain not having L-fucose): <1000 M⁻¹ | association constant Ka (Sugar chain No. 733, sugar chain not having L-fucose): <1000 M⁻¹ | association constant Ka (Sugar chain No. 734, sugar chain not having L-fucose): <1000 M⁻¹ | association constant Ka (Sugar chain No. 735, sugar chain not having L-fucose): <1000 M⁻¹ | association constant Ka (Sugar chain No. 736, sugar chain not having L-fucose): <1000 M⁻¹ | association constant Ka (Sugar chain No. 737, sugar chain not having L-fucose): <1000 M⁻¹ | association constant Ka (Sugar chain No. 738, sugar chain not having L-fucose): <1000 M⁻¹ | association constant Ka (Sugar chain No. 901, sugar chain not having L-fucose): <1000 M⁻¹ | association constant Ka (Sugar chain No. 902, sugar chain not having L-fucose): <1000 M⁻¹ | association constant Ka (Sugar chain No. 903, sugar chain not having L-fucose): <1000 M⁻¹ | association constant Ka (Sugar chain No. 905, sugar chain not having L-fucose): <1000 M⁻¹ | association constant Ka (Sugar chain No. 907, sugar chain not having L-fucose): <1000 M⁻¹
